The assay is described as follows: standard maximal electroshock test (MES), anticonvulsant activity. It is filed as in vivo. As to conditions: HCl salt. Here is the method: The anticonvulsant activity of certain compounds of the present invention were determined by a standard maximal electroshock test (MES); that described by L. A. Woodbury and V. D. Davenport, Arch. Int. Pharmacodyn, 1952, 92 95.
(In general: In the maximal electroshock model the usual endpoint is tonic extension of the hind limbs.)

Setting [1] is: ip, intraperitoneal (I.P.), read-out: ED50 I.P.
[2] abbreviates: oral (P.O.), read-out: ED50 P.O.

Where two headings read alike, the source gives them in different places.

By ED50 is commonly meant the midpoint of the dose-response relation. As for `CNc1nccn2c(Cc3ccc(F)cc3)nnc12` [Example 5, 3-(4-fluorobenzyl)-8-(methylamino)-1,2,4-triazolo[4,3-a]pyrazine], the ED50 under setting [1] was 25 mg/kg.

For `Nc1nccn2c(Cc3ccccc3F)nnc12` [Example 2, 8-amino-3-(2-fluorobenzyl)-1,2,4-triazolo[4,3-a]pyrazine], the ED50 was determined as 9.4 mg/kg under setting [1] and 8 mg/kg under setting [2].

On to `CNc1nccn2c(Cc3cccc(F)c3)nnc12` [Example 4, 3-(3-fluorobenzyl)-8-(methylamino)-1,2,4-triazolo[4,3-a]pyrazine], for which the ED50 worked out at 4.1 mg/kg under setting [1] and 20.4 mg/kg under setting [2]. The matching figures for `Nc1nccn2c(Cc3c(F)cccc3F)nnc12` [Example 9, 8-amino-3-(2,6-difluorobenzyl)-1,2,4-triazolo[4,3-a]pyrazine]: 3.1 mg/kg and 7.1 mg/kg. Take `Fc1cccc(F)c1Cc1nnc2c(NC3CC3)nccn12` [Example 10, 8-(cyclopropylamino)-3-(2,6-difluorobenzyl)-1,2,4-triazolo[4,3-a]pyrazine]: the median effective dose (ED50) under setting [1] came out at 7.2 mg/kg. Regarding `Nc1nccn2c(Cc3cc(F)ccc3F)nnc12` [Example 7, 8-amino-3-(2,5-difluorobenzyl)-1,2,4-triazolo[4,3-a]pyrazine], the ED50 was determined as 7.1 mg/kg under setting [1] and 20.4 mg/kg under setting [2]. With `CNc1nccn2c(Cc3ccccc3)nnc12` [Example 3, 3-Benzyl-8-(methylamino)-1,2,4-triazolo[4,3-a]pyrazine], the ED50 under setting [1] was 6.2 mg/kg and the ED50 under setting [2] turned out to be 15.6 mg/kg. `Fc1ccccc1Cc1nnc2c(NC3CC3)nccn12` [Example 11, 8-(cyclopropylamino)-3-(2-fluorobenzyl)-1,2,4-triazolo[4,3-a]pyrazine]: the ED50 under setting [1] turned out to be 9.4 mg/kg. For the compound `CNc1nccn2c(Cc3cc(F)ccc3F)nnc12` [Example 6, 3-(2,5-difluorobenzyl)-8-(methylamino)-1,2,4-triazolo[4,3-a]pyrazine], the ED50 worked out at 4 mg/kg under setting [1] and 10.2 mg/kg under setting [2].

With `CNc1nccn2c(Cc3c(F)cccc3F)nnc12` [Example 8, 3-(2,6-difluorobenzyl)-8-(methylamino)-1,2,4-triazolo[4,3-a]pyrazine], the ED50 stood at 2 mg/kg under setting [1] and 3 mg/kg under setting [2].

For `CNc1nccn2c(Cc3ccccc3F)nnc12` [Example 1, 3-(2-fluorobenzyl)-8-(methylamino)-1,2,4-triazolo[4,3-a]pyrazine], the ED50 is, setting by setting: under setting [1], 4.1 mg/kg; under setting [2], 8.3 mg/kg.

For the origin of these results see patent US5095018A, “3-benzyl-1,2,4-triazolo[4,3-α] pyrazines” (Burroughs Wellcome Co., priority 1989, dated 1992).
